This is an account of results in patent US12410179B2, “Modulators of TNF alpha activity and uses thereof” (RayThera, Inc., priority 2023, dated 2025).

Molecules are shown by their SMILES.

In general, IC50 refers to the midpoint of a concentration-inhibition curve. Broadly, the Emax is the maximal effect, on the per cent scale that the assay sets. The term Papp A→B denotes the apparent permeability from the apical to the basolateral side of a cell layer. The low end stands for poor permeation, the high end for ready permeation.

TNFα, sequence (P01375 77-233 limits assumed): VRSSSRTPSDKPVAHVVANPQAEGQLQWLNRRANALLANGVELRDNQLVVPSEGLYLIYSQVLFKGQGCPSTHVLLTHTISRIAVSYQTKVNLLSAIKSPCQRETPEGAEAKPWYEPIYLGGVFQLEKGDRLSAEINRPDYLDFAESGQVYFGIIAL

The first series deals with TNFα (Homo sapiens, UniProt P01375). Kind of series: HEK-Blue hTNFα reporter assay. Type of series: cell-based. Also noted: purchased R&D biosystem (R&D Systems) 210-TA-020/CF. Conditions: HEK-Blue hTNFα reporter cells, SEAP readout; read-out: IC50 Range. The method, boiled down:
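IC50 from 4-parameter regression of % inhibition, with OD620 of secreted SEAP (QUANTI-Blue, 1 h) referenced to cells with and without hTNFα. HEK-Blue TNFα reporter cells were exposed 24 h to compound premixed 1 h with hTNFα ([…]).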
(A reporter such as luciferase makes a cellular process visible.)
With `CN1C(=O)c2cccc(OC(F)F)c2[C@H]2C[C@@H]1c1nn3ccc(-c4ccc(P(C)(C)=O)nc4)cc3c12` [Example 20], the IC50 is under 0.025 µM.

In the case of `[2H]C([2H])([2H])N1C(=O)c2cccc(OC(F)F)c2[C@H]2C[C@@H]1c1nn3cc(F)c(-c4cnc([C@]5(N)C[C@@](C)(O)C5)nc4)cc3c12` [Example 267], the IC50 was under 0.025 µM.

As to `CN1C(=O)c2cccc(OC(F)F)c2[C@H]2C[C@@H]1c1nn3ccc(-c4cnc(C5(O)COC5)nc4)cc3c12` [Example 77], the IC50 was under 0.025 µM.

As to `NC1(c2ccc(-c3ccn4nc5c(c4c3)[C@@H]3C[C@H]5NC(=O)c4cccc(OC(F)F)c43)cn2)CCC1` [Example 203], the IC50 was under 0.025 µM.

On to `CN1C(=O)c2cccc(OC(F)F)c2[C@H]2C[C@@H]1c1nn3cnc(-c4cnc([C@]5(O)C[C@@](C)(C#N)C5)nc4)cc3c12` [Example 45], for which the IC50 was under 0.025 µM.

For `CN1C(=O)c2cccc(OC(F)F)c2[C@H]2C[C@@H]1c1nn3ccc(-c4cnc(C(C)(C)N)nc4)cc3c12` [Example 324], the IC50 is under 0.025 µM.

Turning to `CN1C(=O)c2cccc(C#N)c2[C@H]2C[C@@H]1c1nn3ccc(-c4ccc(P(C)(C)=O)nc4)cc3c12` [Example 303], the IC50 is under 0.025 µM.

As for `[2H]C([2H])([2H])N1C(=O)c2cccc(OC(F)F)c2[C@H]2C[C@@H]1c1nn3ccc(-c4cnc([C@]5(C#N)C[C@](C)(N)C5)nc4)nc3c12` [Example 236], the IC50 is 0.1 to 1 µM.

With `CN1C(=O)c2cccc(OC(F)F)c2[C@H]2C[C@@H]1c1nn3ccc(-c4cnc([C@@](C)(O)CO)nc4)cc3c12` [Example 84], the IC50 is under 0.025 µM.

For the molecule `[2H]C([2H])([2H])N1C(=O)c2cccc(OC(F)F)c2[C@H]2C[C@@H]1c1nn3ccc(-c4cnc([C@]5(C#N)C[C@@](C)(N)C5)c(F)c4)cc3c12` [Example 292], the IC50 was under 0.025 µM.

For `[2H]C([2H])([2H])N1C(=O)c2cccc(OC(F)F)c2[C@H]2C[C@@H]1c1nn3ccc(-c4cnc([C@]5(O)C[C@@](C)(N)C5)nc4)nc3c12` [Example 180], the IC50 lay in the range of 0.1 to 1 µM.

As for `CN1C(=O)c2cccc(OC(F)F)c2[C@H]2C[C@@H]1c1nn3ccc(-c4cnc([C@]5(N)C[C@@](C)(C(=O)O)C5)nc4)cc3c12` [Example 88], the IC50 was under 0.025 µM.

As to `CN1C(=O)c2cccc(OC(F)F)c2[C@H]2C[C@@H]1c1nn3cc(F)c(-c4ccc(P(C)(C)=O)nc4)cc3c12` [Example 29], the IC50 is under 0.025 µM.

With `[2H]C([2H])([2H])N1C(=O)c2cccc(OC(F)F)c2[C@H]2C[C@@H]1c1nn3cc(F)c(-c4cnc([C@]5(O)C[C@@](C)(N)C5)c(F)c4)cc3c12` [Example 256], the IC50 was under 0.025 µM.

Consider `C[C@]1(C#N)C[C@](N)(c2ncc(-c3nc4c5c(nn4cc3F)[C@H]3C[C@@H]5c4c(OC(F)F)cccc4C(=O)N3)cc2F)C1` [Example 174], for which the IC50 was under 0.025 µM.

Consider `C[C@](O)(c1ncc(-c2ccn3nc4c(c3c2)[C@@H]2C[C@H]4NC(=O)c3cccc(OC(F)F)c32)cn1)C(F)F` [Example 152], for which the IC50 is under 0.025 µM.

Take `[2H]C([2H])([2H])N1C(=O)c2cccc(C3CC3)c2[C@H]2C[C@@H]1c1nn3ccc(-c4cnc(C5(N)CCC5)nc4)cc3c12` [Example 313]: the IC50 was under 0.025 µM.

As for `[2H]C([2H])([2H])N1C(=O)c2cccc(C#N)c2[C@H]2C[C@@H]1c1nn3ccc(-c4cnc(C5(N)CCC5)nc4)cc3c12` [Example 306], the IC50 was under 0.025 µM.

`CN1C(=O)c2cccc(OC(F)F)c2[C@H]2C[C@@H]1c1nn3cc(F)c(-c4cnc([C@]5(O)C[C@@](C)(O)C5)nc4)cc3c12` [Example 109]: the IC50 was under 0.025 µM.

As to `[2H]C([2H])([2H])N1C(=O)c2cccc(OC(F)F)c2[C@H]2C[C@@H]1c1nn3cnc(-c4cnc([C@]5(N)C[C@@](C)(C#N)C5)c(F)c4)cc3c12` [Example 175], the IC50 is under 0.025 µM.

As to `C[C@@](O)(c1ncc(-c2ccn3nc4c(c3c2)[C@@H]2C[C@H]4NC(=O)c3cccc(OC(F)F)c32)cn1)C(F)F` [Example 151], the IC50 was under 0.025 µM.

For `CN1C(=O)c2cccc(OC(F)F)c2[C@H]2C[C@@H]1c1nn3ccc(-c4cnc(S(=N)(=O)C5CC5)cn4)cc3c12` (stereo partly drawn) [Example 126], the IC50 is under 0.025 µM.

Regarding `CN1C(=O)c2cccc(OC(F)F)c2[C@H]2C[C@@H]1c1nn3ccc(-c4ccc(P(C)(C)=O)cc4)cc3c12` [Example 123], the IC50 is under 0.025 µM.

As for `CN1C(=O)c2cccc(OC(F)F)c2[C@H]2C[C@@H]1c1nn3ccc(-c4cnc([C@](C)(O)C5CC5)nc4)cc3c12` [Example 81], the IC50 was under 0.025 µM.

With `[2H]C([2H])([2H])N1C(=O)c2cccc(OC(F)F)c2[C@H]2C[C@@H]1c1nn3cnc(-c4cnc([C@]5(O)C[C@@](C)(N)C5)nc4)cc3c12` [Example 261], the IC50 was 0.025 to 0.1 µM.

Consider `[2H]C([2H])([2H])N1C(=O)c2cccc(OC(F)F)c2[C@H]2C[C@@H]1c1nn3ccc(-c4cnc(C5(NC)CC5)nc4)nc3c12` [Example 243], for which the IC50 fell in the range of 0.025 to 0.1 µM.

On to `C[C@H](O)[C@H](O)c1ncc(-c2ccn3nc4c(c3c2)[C@@H]2C[C@H]4N(C)C(=O)c3cccc(OC(F)F)c32)cn1` [Example 135], for which the IC50 was under 0.025 µM.

Take `C[C@]1(C#N)C[C@](N)(c2ncc(-c3ccn4nc5c(c4c3)[C@@H]3C[C@H]5NC(=O)c4cccc(OC(F)F)c43)cc2F)C1` [Example 190]: the IC50 is under 0.025 µM.

In the case of `CN1C(=O)c2cccc(OC(F)F)c2[C@H]2C[C@@H]1c1nn3ccc(-c4ncc([C@H](O)C5COC5)cn4)cc3c12` [Example 108], the IC50 is under 0.025 µM.

Regarding `[2H]C([2H])([2H])N1C(=O)c2cccc(OC(F)F)c2[C@H]2C[C@@H]1c1nn3cc(F)c(-c4cnc(C5(N)COC5)nc4)cc3c12` [Example 206], the IC50 was under 0.025 µM.

For the molecule `[2H]C([2H])([2H])N1C(=O)c2cccc(OC(F)F)c2[C@H]2C[C@@H]1c1nn3ccc(-c4cnc([C@@](O)(CC#N)C(F)F)nc4)cc3c12` [Example 97], the IC50 was under 0.025 µM.

As to `[2H]C([2H])([2H])N1C(=O)c2cccc(OC(F)F)c2[C@H]2C[C@@H]1c1nn3ccc(-c4cnc([C@](C)(N)CC#N)nc4)cc3c12` [Example 264], the concentration for half-maximal inhibition (IC50) is under 0.025 µM.

`[2H]C([2H])([2H])N1C(=O)c2cccc(OC(F)F)c2[C@H]2C[C@@H]1c1nn3cc(F)c(-c4cnc([C@]5(N)C[C@@](C)(O)C5)nc4)nc3c12` [Example 57]: the IC50 was under 0.025 µM.

In the case of `CN1C(=O)c2cccc(OC(F)F)c2[C@H]2C[C@@H]1c1nn3cc(F)c(-c4cnc([C@]5(O)C[C@@](C)(O)C5)nc4)nc3c12` [Example 26], the IC50 is under 0.025 µM.

On to `[2H]C([2H])([2H])N1C(=O)c2cccc(OC(F)F)c2[C@H]2C[C@@H]1c1nn3ccc(-c4cnc([C@]5(N)C[C@@](C)(O)C5)nc4C)cc3c12` [Example 281], for which the IC50 was under 0.025 µM.

`CN1C(=O)c2cccc(OC(F)F)c2[C@H]2C[C@@H]1c1nn3ccc(-c4cnc([C@](C)(O)C5COC5)nc4)cc3c12` [Example 86]: the IC50 is under 0.025 µM.

As for `CN1C(=O)c2cccc(OC(F)F)c2[C@H]2C[C@@H]1c1nn3ccc(-c4cnc(C(C)(C)N)nc4)nc3c12` [Example 295], the IC50 is under 0.025 µM.

Regarding `[2H]C([2H])([2H])N1C(=O)c2cccc(OC(F)F)c2[C@H]2C[C@@H]1c1nn3cnc(-c4cnc(C5(N)CCC5)nc4)cc3c12` [Example 262], the IC50 was under 0.025 µM.

As for `[2H]C([2H])([2H])N1C(=O)c2cccc(OC(F)F)c2[C@H]2C[C@@H]1c1nn3ccc(-c4cnc([C@]5(N)C[C@@](C)(CO)C5)nc4)cc3c12` [Example 269], the IC50 is under 0.025 µM.

For `O=C1N[C@@H]2C[C@H](c3c(OC(F)F)cccc31)c1c2nn2ccc(-c3cnc(C4(O)CCC4)nc3)cc12` [Example 140], the IC50 was under 0.025 µM.

The series is the same for the next values; noted with them: HEK-Blue hTNFα reporter cells; read-out: TNFα reporter, Emax.
For `CN1C(=O)c2cccc(OC(F)F)c2[C@H]2C[C@@H]1c1nn3ccc(-c4ccc(P(C)(C)=O)nc4)cc3c12` [Example 20], the Emax was 89%.

As for `CN1C(=O)c2cccc(OC(F)F)c2[C@H]2C[C@@H]1c1nc3ccc(-c4ccc(P(C)(C)=O)nc4)cc3n12` [Comp. Ex #4, reference compound], the Emax turned out to be 82%.

Staying with this series, now noted: HEK-Blue hTNFα reporter cells; read-out: TNFα reporter, IC50.
Take `CN1C(=O)c2cccc(OC(F)F)c2[C@H]2C[C@@H]1c1nn3ccc(-c4ccc(P(C)(C)=O)nc4)cc3c12` [Example 20]: the IC50 was determined as 0.0038 µM.

Consider `CN1C(=O)c2cccc(OC(F)F)c2[C@H]2C[C@@H]1c1nc3ccc(-c4ccc(P(C)(C)=O)nc4)cc3n12` [Comp. Ex #4, reference compound], for which the IC50 was 0.0079 µM.

Tested on in another series: not listed separately
Kind of series: Caco-2 assay (permeability). The series is classed as in vitro ADME. To be noted: human, Caco-2, pH 7.4; apical to basolateral, 5 μM, 2 hours. How it is done: Cells were cultivated for 14-18 days in a cell culture incubator at 37° C., 5% CO2, 95% relative humidity. Cell culture medium was replaced every other day, beginning no later than 24 hours after initial plating.
10 mM stock solutions of test compounds were prepared in DMSO. The stock solutions of positive controls were prepared in DMSO at the concentration of 10 mM.
1) Medium was removed from the reservoir and each Transwell insert and replaced with prewarmed fresh culture medium.
2) Transepithelial electrical resistance (TEER) across the monolayer was measured using Millicell Epithelial Volt-Ohm measuring system (Millipore, USA).
3) The Plate was returned to the incubator once the measurement was done.
1) The Caco-2 plate was removed from the incubator and washed twice with pre-warmed HBSS (10 mM HEPES, pH 7.4), and then incubated at 37° C. for 30 minutes.
The final concentration of DMSO in the incubation system was 0.5%.
3) To determine the rate of drug transport in the apical to basolateral direction.
4) To determine the rate of drug transport in the basolateral to apical direction.
5) The plates were incubated at 37° C. for 2 hours.
6) At the end of the incubation, 50 μL samples from donor sides (apical compartment for Ap→Bl flux, and basolateral compartment for Bl→Ap) and receiver sides (basolateral compartment for Ap→Bl flux, and apical compartment for Bl→Ap) were transferred to wells of a new 96-well plate, followed by the addition of 4 volume of cold methanol containing appropriate internal standards (IS). Samples were vortexed for 5 minutes and then centrifuged at 3,220 g for 40 minutes. An aliquot of 100 μL of the supernatant was mixed with an appropriate volume of ultra-pure water before LC-MS/MS analysis.
100 μL of the Lucifer yellow solution was added to each Transwell insert (apical compartment), followed by filling the wells in the receiver plate (basolateral compartment) with 300 μL of HBSS (10 mM HEPES, pH 7.4).
A general note: Caco-2 cells form a polarised layer with tight junctions and transporters.
In the case of `CN1C(=O)c2cccc(OC(F)F)c2[C@H]2C[C@@H]1c1nn3ccc(-c4ccc(P(C)(C)=O)nc4)cc3c12` [Example 20], the Papp A→B at 2 h, 5 μM came out at 17 nm/s.

Molecule `CN1C(=O)c2cccc(OC(F)F)c2[C@H]2C[C@@H]1c1nc3ccc(-c4ccc(P(C)(C)=O)nc4)cc3n12` [Comp. Ex #4, reference compound] returned a Papp A→B at 2 h, 5 μM of 6 nm/s.

The same series, now with this note: human, Caco-2, pH 7.4; read-out: Caco-2, ER (efflux ratio).
On to `CN1C(=O)c2cccc(OC(F)F)c2[C@H]2C[C@@H]1c1nn3ccc(-c4ccc(P(C)(C)=O)nc4)cc3c12` [Example 20], for which the efflux ratio at 2 h, 5 μM is 22.8.

`CN1C(=O)c2cccc(OC(F)F)c2[C@H]2C[C@@H]1c1nc3ccc(-c4ccc(P(C)(C)=O)nc4)cc3n12` [Comp. Ex #4, reference compound]: the efflux ratio at 2 h, 5 μM came out at 47.5.
